From patent US20240315991A1, “USES OF HNF4 ALPHA AGONISTS” (Sanford Burnham Prebys Medical Discovery Institute, priority 2023, published 2024)

Experiments:
SDHA mRNA = assay: RT-PCR of primary human hepatocytes, SDHA; assay type: cell-based; details: HEP-fat media, NCT 5, 15, and 40 μM, FIGS. 3I and 3J
Description: (§1) Primary human hepatocytes. Experiments with primary human hepatocytes were performed by CN-Bio (Cambridge, UK). Briefly, primary human hepatocytes (PHHs), human Kupffer cells (HKs) and human stellate cells (HSCs) were seeded onto CN-Bio's PhysioMimix LC12 MPS culture plates at 6×10^5 cells for PHHs and 6×10^4 cells for HKs and HSCs in 1.6 ml of CN-Bio's HEP-lean media with 5% FCS. Throughout the experiment the cells were maintained at a flow rate of 1 μl/s. After 24 hours (Day 1) of seeding, the media was changed to HEP-lean media and the cells were incubated until day 4 to allow the cells to form microtissues. At day 4 post seeding, media was changed to HEP-fat media and treated with DMSO or NCT (5, 15, and 40 μM). Media was replaced on days 6 and 8. Cells were harvested on day 10 for RNA extraction and culture media was collected for ELISA analysis.
(§2) RT-PCR. […] Quantitative real time PCR (RT-PCR) analysis was performed using SYBR® Select Master Mix (Applied Biosystems) and an ABI 7900HT thermal cycler (Applied Biosystems, Thermo Fisher Scientific). Ct values were normalized to 18s rRNA and are expressed as fold change over samples from mice fed NC or cultured human hepatocytes without NCT.

citrate synthase = assay: Citrate synthase activity in liver homogenate; assay type: in vivo, mouse; details: HFD+NCT vs HFD, FIGS. 3A-3C
Description: (§3) NCT oral administration. Four-week-old male C57BL/6J (JAX cat #000664) mice were purchased from Jackson laboratory and were maintained in a 12 h light/dark cycle throughout the experiment. Prior to the experiments, mice were acclimated for 2 weeks. Six-week-old mice with similar body weights were randomized to a normal diet (NC), a high fat diet (HFD) (Research Diets, cat #D12492 60 kcal % fat) or HFD containing 4000 ppm NCT (HFD+NCT) (Research Diets, 60 kcal % fat+4000 ppm NCT), which was calculated to provide approximately 400 mg/kg/d NCT. HFD chow containing NCT was made with gray dye to distinguish it from regular HFD chow that had green dye. Mice for each treatment group were placed in separate cages. Equal amounts of fresh chow were provided every week to all mice. Body weight gain and food intake were measured every week for 10 weeks. After 10 weeks of chow treatment, mice were sacrificed for analysis. All animal experiments were approved by the Institutional Animal Care and Use Committee (IACUC) of the Sanford Burnham Prebys Medical Discovery Institute in accordance with national regulations. […]
Citrate synthase activity. Citrate synthase activity in liver homogenate was measured according to manufacturer's instructions using a calorimetry based MitoCheck Citrate Synthase Activity Assay Kit (Cat #701040, Cayman Chemicals, USA).

[1] = system: blood alanine transaminase (ALT); assay: Liver profile analysis, blood ALT; assay type: in vivo, mouse; details: mice fed on HFD, HFD+NCT vs HFD, FIG. 5I
Description: as §3, with “analysis.” for “analysis. All animal experiments were approved by the Institutional Animal Care and Use Committee (IACUC) of the Sanford Burnham Prebys Medical Discovery Institute in accordance with national regulations.”
Liver profile analysis. […] The levels of multiple analytes, including alkaline phosphatase (ALP), alanine aminotransferase (ALT), gamma glutamyl transferase (GGT), bile acids (BA), total bilirubin (TBIL), albumin (ALB), blood urea nitrogen (BUN), total cholesterol (CHOL) were quantified using a VetScan VS2 Chemistry Analyzer (Abaxis North America, USA).

[2] = system: mice maintained on a 60% fat calorie diet; details: intraperitoneal injection for 2 weeks; cited from earlier work
PPARGC1A(PGC1a) = assay: Western blotting of liver, PPARGC1A(PGC1a); assay type: in vivo, mouse; details: HFD+NCT vs HFD, FIGS. 4A-4C
Description: (§4) NCT oral administration. Four-week-old male C57BL/6J (JAX cat #000664) mice were purchased from Jackson laboratory and were maintained in a 12 h light/dark cycle throughout the experiment. Prior to the experiments, mice were acclimated for 2 weeks. Six-week-old mice with similar body weights were randomized to a normal diet (NC), a high fat diet (HFD) (Research Diets, cat #D12492 60 kcal % fat) or HFD containing 4000 ppm NCT (HFD+NCT) (Research Diets, 60 kcal % fat+4000 ppm NCT), which was calculated to provide approximately 400 mg/kg/d NCT. HFD chow containing NCT was made with gray dye to distinguish it from regular HFD chow that had green dye. Mice for each treatment group were placed in separate cages. Equal amounts of fresh chow were provided every week to all mice. Body weight gain and food intake were measured every week for 10 weeks. After 10 weeks of chow treatment, mice were sacrificed for analysis. All animal experiments were approved by the Institutional Animal Care and Use Committee (IACUC) of the Sanford Burnham Prebys Medical Discovery Institute in accordance with national regulations. Sample size was chosen based on the prior study of NCT delivered by IP injection.
(§5) Western blotting. Mouse liver extracts were prepared by incubation in RIPA buffer (Invitrogen) containing protease inhibitors (Calbiochem, SanDiego, CA). Protein was quantified by BCA assay (Thermo Scientific). […]

PPARGC1A mRNA = assay: RT-PCR of primary human hepatocytes, PPARGC1A; assay type: cell-based; details: HEP-fat media, NCT 5, 15, and 40 μM, FIG. 4F
Description: as §1, §2

HSP60 mRNA = assay: RT-PCR of mouse liver, HSP60; assay type: in vivo; details: HFD+NCT vs HFD, FIG. 3M
Description: as §3, with “analysis.” for “analysis. All animal experiments were approved by the Institutional Animal Care and Use Committee (IACUC) of the Sanford Burnham Prebys Medical Discovery Institute in accordance with national regulations.”
as §2

TNFα mRNA = assay: RT-PCR of primary human hepatocytes, TNFα; assay type: cell-based; details: HEP-fat media, NCT 5, 15, and 40 μM, dose-responsive manner, FIG. 5F
Description: as §1, §2

hepatic cytochrome C = assay: Western blotting of liver, cytochrome C; assay type: in vivo, mouse; details: HFD+NCT vs HFD, FIGS. 3D-3F
Description: as §4, §5

[3] = cited from earlier work
[4] = system: DNA encoding the mitochondrial genes ND1; assay: Mitochondrial DNA analysis of liver, ND1; assay type: in vivo; details: mouse liver, HFD+NCT vs HFD, FIG. 3K
Description: as §4
Quantification of mtDNA was performed. […]

ILIβ mRNA = assay: RT-PCR of mouse liver, ILIβ; assay type: in vivo; details: HFD+NCT vs HFD, FIG. 5C
Description: as §3, with “analysis.” for “analysis. All animal experiments were approved by the Institutional Animal Care and Use Committee (IACUC) of the Sanford Burnham Prebys Medical Discovery Institute in accordance with national regulations.”
as §2

Sirt3 mRNA = assay: RT-PCR of primary human hepatocytes, Sirtuin3; assay type: cell-based; details: HEP-fat media, NCT 5, 15, and 40 μM, FIG. 4H
Description: as §1, §2

O=C(/C=C/c1ccc(O)c(O)c1)NCCc1ccc(O)cc1 [NCT, N-trans caffeoyltyramine]
SDHA mRNA in human hepatocytes (SDHA mRNA): increase
citrate synthase level in liver (citrate synthase): reverse the depression
blood alanine transaminase (ALT) level [1]: decrease
body weight loss [2]: no body weight loss
fat stored in liver [2]: reduce
PPARGC1A(PGC1a) protein level in mouse liver (PPARGC1A(PGC1a)): increase
PPARGC1A(PGC1a) mRNA in primary human hepatocytes (PPARGC1A mRNA): increase
HSP60 mRNA level in liver (HSP60 mRNA): reverse the induction
TNFα mRNA level in cultured human hepatocytes (TNFα mRNA): decrease
hepatic cytochrome C protein level (hepatic cytochrome C): reverse the depression
oral bioavailability [3]: poor
level of DNA encoding the mitochondrial genes ND1 [4]: increase
expression level of ILIβ in mouse liver (ILIβ mRNA): non-significant
expression level of ILIβ in mouse liver (ILIβ mRNA; listed as Compound A): not affect
Sirt3 mRNA in primary human hepatocytes (Sirt3 mRNA): reverse the depression
